The values below come from patent US20200113852A1, “METHODS OF PATIENT SELECTION AND TREATING TRXR- OR PRDX-OVEREXPRESSED CANCERS” (TRIACT THERAPEUTICS, INC., priority 2017, published 2020).

For data set [1] the following is noted: human, in vivo.
Excerpt: It was a single arm, multi dose, dose escalating trial in newly diagnosed GBM patients. The total number of patients was 43, with about 5 patients per cohort. Patients who tolerated radiation (XRT) and temozolomide (TMZ) were recruited. Inclusion criteria included completion of XRT and TMZ without grade 3 or 4 toxicity and labs within acceptable range within 6 weeks of completing XRT. The end points included safety, maximum tolerated dose (MTD), and signal of activity.
Using modified continual reassessment method, MTD was defined for metronomic and standard dose TMZ.
A short description of data set [2]: Phase I clinical trial GBM, pharmacokinetics. The format is in vivo, human. Conditions: human, geometric mean±SD, plasma, read-out: Cmax. An excerpt:
No cytochrome P450-inducing anticonvulsants. However, Gliadel was permitted.
Dosing is IV 2×/week continuous.

In data set [3] the target is T1, human recombinant glutathione S-transferase pi (GSTP1) (Homo sapiens, UniProt P09211).
T1 construct: purchased Acris
Briefly: In vitro Iniparib-glutathione conjugation. Particulars: 30 μM, 1 mM GSH. The format is biochemical. As to the method: (§1) Online solid phase extraction (SPE) was performed using the fully automated Spark Holland Symbiosis™ (Emmen, The Netherlands) in eXtraction Liquid Chromatography (XLC) mode. The Symbiosis™ has previously been described in detail (18). HySphere™ C18 HD 7 μm SPE cartridges were used (Spark Holland). Each cartridge was initially conditioned with 2 ml methanol+0.5% formic acid (FA) and then equilibrated with 2 ml water+0.5% FA, both at flow-rates of 4 ml/min. Sample (25 μl) was aspirated and loaded onto the cartridge with 1 ml water+0.5% FA at a flow-rate of 1 ml/min. […] After elution, the right clamp was washed successively with 2 ml water+0.5% FA, 2 ml methanol+0.5% FA and 2 ml water+0.5% FA at 4 ml/min. […] The mobile phase composition was returned to starting conditions over 1 min and maintained during 6 min for column equilibration. The total run time was 27 min. Mass spectrometry was performed using the Thermo® TSQ Quantum Discovery Max in electrospray positive ionization mode (Thermo, US) with the following parameters: capillary voltage=4.0 kV, capillary temperature=300° C., sheath gas pressure=40, auxiliary gas pressure=5.

For data set [4], the system named is MDA-MB-453 cells. In words: Cytotoxicity assay (WST-1 cell viability). Particulars: for IC50: Homo sapiens. As to the method:
Cell viability following drug treatments was assessed using WST-1 cell proliferation assay (Roche) Briefly, cells were plated into 96-well plates with 8,000 (HCT116) or 20,000 (MDA-MB-453) cells per well and allowed to attach overnight. Cells were then preincubated for 5 h in the presence or absence of 1 mM BSO. […] After 3 h of incubation at 37° C., the amount of formazan dye was quantified by measuring the optical density at 450 nm with a scanning multiwell spectrophotometer (PerkinElmer).
Cell viability following drug treatments was assessed using WST-1 cell proliferation assay (Roche). Briefly, cells were plated into 96-well plates with 8,000 (HCT116) or 20,000 (MDA-MB-453) cells per well and allowed to attach overnight. Cells were then preincubated for 5 h in the presence or absence of 1 mM BSO. […] After 3 h of incubation at 37° C., the amount of formazan dye was quantified by measuring the optical density at 450 nm with a scanning multiwell spectrophotometer (PerkinElmer).

In data set [5] the test system is HCT116 cells. In words: ROS production and video-microscopy (H2DCF). The format is cell-based, human. Particulars: HCT116 loaded with H2DCF, 100 μM. As to the method: HCT116 cells pretreated or not for 20h with 1 mM BSO were loaded with 5 μM 2′,7′ dichloroflurescein diacetate (H2DCF). […] H2DCF fluorescence was excited with a LED light source (490 nm) and emitted light was collected at 520-550 nm. For video, H2DCF-loaded cells were washed with HBSS and kept for measurement in 2 μM H2DCF in HBSS.
For quantification the MetaMorph® software was used. ROIs were traced on representative cells and integrated fluorescence intensities were estimated. Values correspond to the average intensities of the ROIs and are expressed as the ratio F/FO, where F is the averaged intensity recorded at a given time and FO corresponds to an averaged intensity recorded on images captured before adding the compounds.

Data set [6] has as its system MDA-MB-453 cells. Briefly: Iniparib metabolites release, XLC-MS/MS of incubation media. Also on record: unit not given beside the values. The format is in vitro ADME, human. The procedure: as §1
(§2) All values are expressed as means±SEM of three independent experiments. ND., non detectable.

Data set [7] deals with HCT116 cells. Described as above. Type of data set: in vitro ADME, human. Also on record: unit not given beside the values. As to the method:
as §1, §2

The next data set concerns MDA-MB-231 cells. Briefly: Fluorescence microscopy, subcellular localization of iniparib-biotin targets. Type of data set: cell-based, human. Conditions: MDA-MB-231, as early as 30 min following compound addition. As to the method: MDA-MB-231 cells were platted on polylysine D coated thin glass bottom microscope chambers (Ibidi). […] For subcellular localization experiments mitochondria were stained with 100 nM Mitotracker Red CMX (Molecular probes) added for 10 min. This stain was performed before fixation (Paraformaldehyde 3.7% in PBS pH 7.4). Biotin was developed, after Triton X100 (0.3% in PBS, 15 min) permeabilization and saturation (1% BSA+1% gelatin in PBS: saturation buffer), with Alexa-488 streptavidin (Molecular Probes) conjugate (1 μg/ml in saturation buffer). Nuclei were stained with Hoechst (Molecular Probes) and samples mounted in antifading solution (Ibidi).
Cells were imaged with a PLAN NeoFluar 40× (NA 1.3) or 100×, (NA 1.46) oil objectives on a LSM510 (Zeiss) confocal microscope. Laser lines, filters and dichroic mirrors were selected for maximal separation of the green (Ex./Em. 488/530 nm) and the red fluorescence (Ex./Em. 543/LP 585 nm). Nuclei were observed (Ex./Em. 405/460 nm). For co-localization stacks of images separated by 400 nm along z-axis were acquired. Post-capture processing was done using LSM510 software, stacks of confocal images were deconvoluted using the ImageJ software.

SMILES strings stand for the structures. Read-outs that look alike come from different tables or passages of the source.

T1 sequence (P09211 whole entry): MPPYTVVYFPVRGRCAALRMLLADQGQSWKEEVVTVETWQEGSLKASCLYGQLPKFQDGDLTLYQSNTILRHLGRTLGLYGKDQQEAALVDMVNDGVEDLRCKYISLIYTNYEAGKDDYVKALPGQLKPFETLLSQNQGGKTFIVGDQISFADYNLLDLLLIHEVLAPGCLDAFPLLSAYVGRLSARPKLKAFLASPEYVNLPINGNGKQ

Turning to `NC(=O)c1ccc(I)c([N+](=O)[O-])c1` [Iniparib, 4-iodo-3-nitrobenzamide], the “DLT: fatigue” value in data set [1] was 1. Besides, the “DLT: hypersensitivity reaction” value in data set [1] amounted to 1. Moreover, in data set [1], the “DLT: rash” value is recorded as 1. Further, the “DLT: thromboembolic event” value in data set [1] is 1. For the same compound, the Fatigue in data set [1] was 28 (65) No. (% of pts); in data set [1] (3 cycles (10 weeks each)), 13 (65) No. (% of pts); in data set [1] (6 cycles (monthly)), 15 (65) No. (% of pts). In addition, the Nausea in data set [1] is listed as 18 (42) No. (% of pts); in data set [1] (3 cycles (10 weeks each)), 9 (45) No. (% of pts); in data set [1] (6 cycles (monthly)), 9 (39) No. (% of pts). Moreover, in data set [1], the “additional grade 3 toxicities” value is “neutropenia, lymphopenia, nausea, and elevated AST”. Further, the Cmax was 642 ± 315 ng/mL in data set [2] (5.1 mg/kg IV 2×/week); 928 ± 397 ng/mL in data set [2] (6.1 mg/kg IV 2×/week); 1020 ng/mL in data set [2] (6.8 mg/kg IV 2×/week); 3690 ng/mL in data set [2] (8.0 mg/kg IV 2×/week); 1520 ng/mL in data set [2] (8.6 mg/kg IV 2×/week); 2140 ng/mL in data set [2] (9.5 mg/kg IV 2×/week). Further, the “reaction with GSH” value in data set [3] (absence of GSTP1) is listed as “did not react”. Further, in data set [3] (recombinant GSTP1 added), the “conversion of Iniparib to Iniparib-GS” value is “complete conversion”. For the same compound, the IC50 in the data set with MDA-MB-453 cells [4] (MDA-MB-453, read-out: IC50 (cytotoxicity), MDA-MB-453, GSH depletion (Example 2)) stood at 16.2 µM; in the data set with MDA-MB-453 cells [4] (MDA-MB-453, read-out: IC50 (cytotoxicity), MDA-MB-453, absence of BSO (Example 2)) it was 85 µM; in the data set on MDA-MB-453 cells [4] (MDA-MB-453, read-out: IC50 (cytotoxicity), MDA-MB-453 after GSH depletion with BSO (Example 1)), 17.8 ± 2.9 µM; with MDA-MB-453 cells [4] (MDA-MB-453, read-out: IC50 (cytotoxicity), MDA-MB-453 without BSO pre-treatment, 48 h (Example 1)), 84 ± 6.5 µM. The “augmentation of cytotoxicity by GSH depletion” value in the data set with MDA-MB-453 cells [4] (MDA-MB-453, BSO vs no BSO) worked out at 4 fold. Also, the ROS production result in the data set with HCT116 cells [5] is recorded as “induced an increase in ROS production”. For the same compound, the “Iniparib and metabolites in incubation media” value came out at 91.4 ± 5.1 in the data set with MDA-MB-453 cells [6] (MDA-MB-453 w BSO, 1 h after 100 μM Iniparib); 88.9 ± 10.2 with MDA-MB-453 cells [6] (MDA-MB-453 w BSO, 5 h after 100 μM Iniparib); 74.2 ± 10.8 in the data set on MDA-MB-453 cells [6] (MDA-MB-453 w BSO, 24 h after 100 μM Iniparib); 87.1 ± 1.3 with MDA-MB-453 cells [6] (MDA-MB-453 w/o BSO, 1 h after 100 μM Iniparib); 64.0 ± 8.8 with MDA-MB-453 cells [6] (MDA-MB-453 w/o BSO, 5 h after 100 μM Iniparib); 12.2 ± 4.3 with MDA-MB-453 cells [6] (MDA-MB-453 w/o BSO, 24 h after 100 μM Iniparib). The “Iniparib and metabolites in incubation media” value with HCT116 cells [7] (HCT116 w BSO, 1 h after 100 μM Iniparib) was determined as 87.6 ± 3.5; with HCT116 cells [7] (HCT116 w BSO, 5 h after 100 μM Iniparib), 84.5 ± 6.7; with HCT116 cells [7] (HCT116 w BSO, 24 h after 100 μM Iniparib), 72.9 ± 7.4; in the data set with HCT116 cells [7] (HCT116 w/o BSO, 1 h after 100 μM Iniparib), 59.2 ± 0.6; in the data set with HCT116 cells [7] (HCT116 w/o BSO, 5 h after 100 μM Iniparib) it was 8.9 ± 0.4.

With `O=C(CCCC[C@@H]1SC[C@@H]2NC(=O)N[C@@H]21)NCCNC(=O)c1ccc(I)c([N+](=O)[O-])c1` [Iniparib-biotin, 4-iodo-3-nitro-N-(2-(5-((3 aS,4S,6aR)-2-oxohexahydro-1H-thieno[3,4-d]imidazol-4-yl)pentanamido)ethyl)benzamide], the “protein modification, subcellular localization” value with MDA-MB-231 cells was “covalently modified cytosolic and mitochondrial proteins were detected”.

In general, Cmax refers to the maximum level reached in the sampled fluid or tissue. Broadly, the IC50 is the midpoint of a concentration-inhibition curve.
